This is an account of results in patent publication US4500526A, “Cephalosporin derivatives” (Bristol-Myers Company, priority 1983, dated 1985).

Converted amounts (≈) assume the structure as drawn. Like-named read-outs stand apart in the source and are kept apart here.

For one test, the system named is S. pyogenes (5 strains). Kind of test: In vitro activity against fastidious bacteria, two-fold serial agar dilution. The following applies: Streptococcus pyogenes; GC agar; read-out: Geometric Mean of MIC. It counts as cell-based. On the procedure: (§1) The in vitro activity of some of the preferred compounds against 30 strains of fastidious bacteria was determined by the two-fold serial agar dilution method in Gonococcus agar (GC agar), and the results are shown in Table 3.
(In agar dilution, organisms are placed on agar that contains the substance at set levels.)

The next test concerns N. meningitidis (5). The description is as above. The format is cell-based. Conditions: Neisseria meningitidis, read-out: Geometric Mean of MIC. On the procedure: as §1
Test [1] relates to H. influenzae (3) (ampicillin resistant). The description is as above. The following applies: Haemophilus influenzae, read-out: Geometric Mean of MIC. The format is cell-based. The method, then:
as §1

For another test, the system named is N. gonorrhoeae (5). The test is described as above. The format is cell-based. Conditions: Neisseria gonorrhoeae, read-out: Geometric Mean of MIC. The method, then: as §1
In a further test the test system is S. pneumoniae (5). Described as above. It counts as cell-based. The following applies: Streptococcus pneumoniae; GC agar; read-out: Geometric Mean of MIC. On the procedure:
as §1

A further test deals with P. aeruginosa A21509. Kind of test: Median protective dose in infected mice. The format is in vivo. Conditions: Pseudomonas aeruginosa, im, immediately after intraperitoneal challenge, read-out: PD50. On the procedure:
(§2) The median protective dose (PD50) of some of the preferred compounds against various microorganisms was determined in mice by intramuscular administration of the test compound immediately after an intraperitoneal bacterial challenge.

Another test deals with P. aeruginosa A9843. Kind of test: Median protective dose in infected mice. It counts as in vivo. The following applies: Pseudomonas aeruginosa, im, immediately after intraperitoneal challenge, read-out: PD50. On the procedure: as §2
The subject of another test is E. coli Juhl. Kind of test: Median protective dose in infected mice. The following applies: Escherichia coli, im, immediately after intraperitoneal challenge, read-out: PD50. It counts as in vivo. On the procedure: as §2
Test [2] relates to Cephalothinresistant E. coli (3 strains) and Kl. pneumoniae (3 strains). Kind of test: MIC, two-fold serial agar dilution, group (G-)-Ib. The following applies: Escherichia coli, read-out: Geometric Mean of MIC. It counts as cell-based. In a few lines:
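MICs by two-fold serial agar dilution in Mueller-Hinton agar against cephalothin-resistant E. coli and Klebsiella pneumoniae strains. Compound weights were corrected for purity.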

Test [3] concerns H. influenzae (7) (ampicillin sensitive). Kind of test: In vitro activity against fastidious bacteria, two-fold serial agar dilution. The format is cell-based. The following applies: Haemophilus influenzae, GC agar, 7 strains, read-out: Geometric Mean of MIC. The method, then: as §1
Another test deals with S. pyogenes A20201. Kind of test: Median protective dose in infected mice. It counts as in vivo. The following applies: Streptococcus pyogenes, im, immediately after intraperitoneal challenge, read-out: PD50. The method, then: as §2

For `CO/N=C(\C(=O)NC1C(=O)N2C(C(=O)[O-])=C(C[n+]3ccc4scnc4c3)CS[C@H]12)c1csc(N)n1` (some centres unmarked) [Ia, 7-[(Z)-2-(2-Aminothiazol-4-yl)-2-methoxyiminoacetamido]-3-{(5-thiazolo[4,5-c]pyridinio)methyl}-3-cephem-4-carboxylate], the MIC with S. pyogenes (5 strains) stood at 0.0125 µg/mL (≈ 0.0235 µM); in the test with N. meningitidis (5) (GC agar) it was 0.0125 µg/mL (≈ 0.0235 µM); in test [1] (GC agar, ampicillin resistant, 3 strains) it was 0.0125 µg/mL (≈ 0.0235 µM); in the test with N. gonorrhoeae (5) (GC agar), 0.0125 µg/mL (≈ 0.0235 µM); in the test with S. pneumoniae (5), 0.0125 µg/mL (≈ 0.0235 µM); in test [2], 0.16 µg/mL (≈ 0.301 µM). The results for the ED50 with P. aeruginosa A21509, in the test with P. aeruginosa A9843 and in the test on E. coli Juhl were 6.25 mg/kg, 7.2 mg/kg and 0.012 mg/kg, respectively.

For `CC(C)(O/N=C(\C(=O)NC1C(=O)N2C(C(=O)[O-])=C(C[n+]3ccc4scnc4c3)CS[C@H]12)c1csc(N)n1)C(=O)O` (some centres unmarked) [Id, 7-[(Z)-2-(2-Aminothiazol-4-yl)-2-(2-carboxyprop-2-oxyimino)-acetamido]-3-{(5-thiazolo[4,5-c]pyridinio)methyl}-3-cephem-4-carboxylate], the MIC with S. pyogenes (5 strains) amounted to 0.2 µg/mL (≈ 0.331 µM); in test [3], 0.1 µg/mL (≈ 0.166 µM); with N. meningitidis (5), 0.1 µg/mL (≈ 0.166 µM); in [1], 0.1 µg/mL (≈ 0.166 µM); in the test on N. gonorrhoeae (5), 0.1 µg/mL (≈ 0.166 µM); with S. pneumoniae (5), 0.2 µg/mL (≈ 0.331 µM). Besides, the MIC in test [2] was found to be 0.71 µg/mL (≈ 1.18 µM). Also, the ED50 with P. aeruginosa A21509 was 5 mg/kg; in the test with S. pyogenes A20201, 0.23 mg/kg; with P. aeruginosa A9843, 4.3 mg/kg; in the test on E. coli Juhl, 0.082 mg/kg.
